Laboratory results taken from US20250205344A1, “2,4-DIOXOTETRAHYDROPYRIMIDINYL DERATIVES AS DEGRONS IN PROTACS” (GLAXOSMITHKLINE INTELLECTUAL PROPERTY DEVELOPMENT LIMITED, priority 2022, published 2025).
Structures can show the parent of a compound that is named as a salt.

Molecular target: T1, Androgen Receptor (Homo sapiens, UniProt P10275, T878A)
T1 construct: the AR gene was modified, using CRISPR/Cas9 editing, so the expressed AR protein included an 11 amino acid HiBiT tag; endogenous in cells; host or cells: clonal LnCaP-derived line, AR gene edited by CRISPR/Cas9
T1 sequence (P10275 whole entry T878A): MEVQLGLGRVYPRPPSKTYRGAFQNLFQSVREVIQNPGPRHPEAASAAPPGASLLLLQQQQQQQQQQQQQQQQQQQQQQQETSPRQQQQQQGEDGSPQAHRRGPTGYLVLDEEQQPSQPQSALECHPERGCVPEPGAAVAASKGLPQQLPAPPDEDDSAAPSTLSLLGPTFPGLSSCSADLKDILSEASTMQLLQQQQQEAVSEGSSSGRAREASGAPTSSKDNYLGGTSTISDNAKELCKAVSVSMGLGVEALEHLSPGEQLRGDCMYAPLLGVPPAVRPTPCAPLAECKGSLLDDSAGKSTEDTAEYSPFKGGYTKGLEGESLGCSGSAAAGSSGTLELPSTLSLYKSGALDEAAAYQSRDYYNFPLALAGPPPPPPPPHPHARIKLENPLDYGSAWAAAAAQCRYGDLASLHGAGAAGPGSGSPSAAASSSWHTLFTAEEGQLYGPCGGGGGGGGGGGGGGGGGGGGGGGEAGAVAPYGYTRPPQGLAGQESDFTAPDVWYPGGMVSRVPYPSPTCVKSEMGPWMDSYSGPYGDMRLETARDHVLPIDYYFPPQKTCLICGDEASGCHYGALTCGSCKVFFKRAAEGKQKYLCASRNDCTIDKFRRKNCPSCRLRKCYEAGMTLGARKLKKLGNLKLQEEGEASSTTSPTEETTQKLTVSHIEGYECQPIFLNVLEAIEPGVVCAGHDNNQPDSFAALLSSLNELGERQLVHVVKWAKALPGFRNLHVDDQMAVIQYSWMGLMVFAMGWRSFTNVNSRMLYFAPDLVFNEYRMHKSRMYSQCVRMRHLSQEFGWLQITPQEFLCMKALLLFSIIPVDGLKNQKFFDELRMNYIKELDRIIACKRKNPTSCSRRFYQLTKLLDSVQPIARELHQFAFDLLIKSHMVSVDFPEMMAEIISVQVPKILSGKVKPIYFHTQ
T1 sequence (Q96SW2 whole entry partner): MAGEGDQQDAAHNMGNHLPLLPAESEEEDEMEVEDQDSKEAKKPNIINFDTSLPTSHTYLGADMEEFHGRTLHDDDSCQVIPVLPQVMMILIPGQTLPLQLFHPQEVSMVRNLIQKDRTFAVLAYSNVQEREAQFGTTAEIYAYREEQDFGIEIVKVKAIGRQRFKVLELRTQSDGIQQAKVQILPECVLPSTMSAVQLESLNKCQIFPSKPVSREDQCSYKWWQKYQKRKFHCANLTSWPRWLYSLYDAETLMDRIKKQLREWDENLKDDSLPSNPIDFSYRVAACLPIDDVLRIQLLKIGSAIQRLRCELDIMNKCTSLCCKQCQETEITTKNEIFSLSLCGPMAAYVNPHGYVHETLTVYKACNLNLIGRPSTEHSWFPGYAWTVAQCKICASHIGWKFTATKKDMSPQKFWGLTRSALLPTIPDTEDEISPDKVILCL
T1 sequence (Q16531 whole entry partner): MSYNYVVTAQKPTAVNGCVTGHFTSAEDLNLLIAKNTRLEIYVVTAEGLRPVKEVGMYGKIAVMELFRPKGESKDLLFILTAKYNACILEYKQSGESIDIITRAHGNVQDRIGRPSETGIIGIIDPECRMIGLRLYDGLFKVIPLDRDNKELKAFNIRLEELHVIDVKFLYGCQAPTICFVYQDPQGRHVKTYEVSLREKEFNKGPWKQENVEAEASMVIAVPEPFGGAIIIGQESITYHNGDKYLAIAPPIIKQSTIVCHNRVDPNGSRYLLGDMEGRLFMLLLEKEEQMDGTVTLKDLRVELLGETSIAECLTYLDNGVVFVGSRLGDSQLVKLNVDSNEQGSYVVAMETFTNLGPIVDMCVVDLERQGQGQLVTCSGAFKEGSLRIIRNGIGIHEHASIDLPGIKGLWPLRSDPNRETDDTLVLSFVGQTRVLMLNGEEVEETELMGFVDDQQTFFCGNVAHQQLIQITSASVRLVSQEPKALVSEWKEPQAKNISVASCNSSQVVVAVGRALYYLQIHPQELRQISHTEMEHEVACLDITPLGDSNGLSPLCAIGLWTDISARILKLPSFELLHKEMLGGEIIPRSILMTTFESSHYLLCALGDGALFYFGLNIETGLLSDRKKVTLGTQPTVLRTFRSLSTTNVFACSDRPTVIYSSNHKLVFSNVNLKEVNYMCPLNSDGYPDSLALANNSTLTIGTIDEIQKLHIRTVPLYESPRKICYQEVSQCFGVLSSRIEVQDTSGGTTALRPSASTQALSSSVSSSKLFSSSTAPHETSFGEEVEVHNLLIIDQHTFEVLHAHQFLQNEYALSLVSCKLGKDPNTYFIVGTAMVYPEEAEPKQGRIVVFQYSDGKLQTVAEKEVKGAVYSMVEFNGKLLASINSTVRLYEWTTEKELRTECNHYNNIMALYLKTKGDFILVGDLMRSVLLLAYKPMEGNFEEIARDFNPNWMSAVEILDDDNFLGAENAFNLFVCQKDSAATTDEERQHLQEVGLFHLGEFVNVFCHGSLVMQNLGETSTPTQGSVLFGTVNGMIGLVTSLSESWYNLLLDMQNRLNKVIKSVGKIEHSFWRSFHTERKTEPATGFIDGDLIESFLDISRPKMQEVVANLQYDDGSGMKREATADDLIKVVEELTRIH
Experiment: Androgen Receptor Degradation Assay (Nano-Glo HiBiT)
Assay type: cell-based
Conditions: LNCaP, 18 h, HiBiT-tagged AR in human LnCaP cells, read-out: mean asymptote max
In short: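 LnCaP cells with CRISPR-knocked-in N-terminal HiBiT-tagged AR (10,000/well) treated 18 h at 37 °C with PROTACs over 11 threefold concentrations; lytic HiBiT luminescence normalised to DMSO (0%) and cell-free (100%) controls. Relative DC50 = 4-parameter fit inflection; absolute DC50 = 50% degradation interpolation; Dmax = maximum observed degradation.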

SMILES	Dmax [%]
CC(C)n1ccc2c(N3CCC(=O)NC3=O)cc(C(=O)N3CCN(CCCCCCc4ccc(C(=O)N[C@H]5C(C)(C)[C@H](Oc6ccc(C#N)c(C(F)(F)F)c6)C5(C)C)cc4)CC3)cc21 [EAR87, N-((1r,3r)-3-(4-Cyano-3-(trifluoromethyl)phenoxy)-2,2,4,4-tetramethylcyclobutyl)-4-(6-(4-(4-(2,4-dioxotetrahydropyrimidin-1(2H)-yl)-1-isopropyl-1H-indole-6-carbonyl)piperazin-1-yl)hexyl)benzamide]	≥ 50
CC(C)n1ccc2c(N3CCC(=O)NC3=O)cc(C(=O)N(C)CC3CCN(C4CCN(c5ccc(N6C(=S)N(c7ccc(C#N)c(C(F)(F)F)c7)C(=O)C6(C)C)cc5)CC4)CC3)cc21 [EAR88, N-((1′-(4-(3-(4-Cyano-3-(trifluoromethyl)phenyl)-5,5-dimethyl-4-oxo-2-thioxoimidazolidin-1-yl)phenyl)-[1,4′-bipiperidin]-4-yl)methyl)-4-(2,4-dioxotetrahydropyrimidin-1(2H)-yl)-1-isopropyl-N-methyl-1H-indole-6-carboxamide formate]	≥ 50
CC(C)n1ccc2c(N3CCC(=O)NC3=O)cc(C(=O)N(C)CC3CCN(CC4CCN(c5ccc(N6C(=S)N(c7ccc(C#N)c(C(F)(F)F)c7)C(=O)C6(C)C)cc5)CC4)CC3)cc21 [EAR89, N-((1-((1-(4-(3-(4-Cyano-3-(trifluoromethyl)phenyl)-5,5-dimethyl-4-oxo-2-thioxoimidazolidin-1-yl)phenyl)piperidin-4-yl)methyl)piperidin-4-yl)methyl)-4-(2,4-dioxotetrahydropyrimidin-1(2H)-yl)-1-isopropyl-N-methyl-1H-indole-6-carboxamide]	≥ 50
CC(C)n1ccc2c(N3CCC(=O)NC3=O)cc(C(=O)N(C)CC3CCN(CCC4CCN(c5ccc(N6C(=S)N(c7ccc(C#N)c(C(F)(F)F)c7)C(=O)C6(C)C)cc5)CC4)CC3)cc21 [EAR91, N-((1-(2-(1-(4-(3-(4-Cyano-3-(trifluoromethyl)phenyl)-5,5-dimethyl-4-oxo-2-thioxoimidazolidin-1-yl)phenyl)piperidin-4-yl)ethyl)piperidin-4-yl)methyl)-4-(2,4-dioxotetrahydropyrimidin-1(2H)-yl)-1-isopropyl-N-methyl-1H-indole-6-carboxamide]	≥ 50
CC(C)n1ccc2c(N3CCC(=O)NC3=O)cc(C(=O)N3CCN(CCCCOc4ccc(N5C(=S)N(c6ccc(C#N)c(C(F)(F)F)c6)C(=O)C5(C)C)cc4)CC3)cc21 [EAR92, 4-(3-(4-(4-(4-(4-(2,4-Dioxotetrahydropyrimidin-1(2H)-yl)-1-isopropyl-1H-indole-6-carbonyl)piperazin-1-yl)butoxy)phenyl)-4,4-dimethyl-5-oxo-2-thioxoimidazolidin-1-yl)-2-(trifluoromethyl)benzonitrile]	≥ 50
CC(C)n1ccc2c(N3CCC(=O)NC3=O)cc(C(=O)N(C)CC3CCN(CCCOc4ccc(N5C(=S)N(c6ccc(C#N)c(C(F)(F)F)c6)C(=O)C5(C)C)cc4)CC3)cc21 [EAR93, N-((1-(3-(4-(3-(4-Cyano-3-(trifluoromethyl)phenyl)-5,5-dimethyl-4-oxo-2-thioxoimidazolidin-1-yl)phenoxy)propyl)piperidin-4-yl)methyl)-4-(2,4-dioxotetrahydropyrimidin-1(2H)-yl)-1-isopropyl-N-methyl-1H-indole-6-carboxamide formate]	≥ 50
CC(C)n1ccc2c(N3CCC(=O)NC3=O)cc(C(=O)N3CCN(CCCOc4ccc(N5C(=S)N(c6ccc(C#N)c(C(F)(F)F)c6)C(=O)C5(C)C)cc4)CC3)cc21 [EAR94, 4-(3-(4-(3-(4-(4-(2,4-Dioxotetrahydropyrimidin-1(2H)-yl)-1-isopropyl-1H-indole-6-carbonyl)piperazin-1-yl)propoxy)phenyl)-4,4-dimethyl-5-oxo-2-thioxoimidazolidin-1-yl)-2-(trifluoromethyl)benzonitrile formate]	≥ 50
CC1(C)C(=O)N(c2ccc(C#N)c(C(F)(F)F)c2)C(=S)N1c1ccc(N2CCC(CN3CCC(n4ncc5c(N6CCC(=O)NC6=O)cccc54)CC3)CC2)cc1 [EAR95, 4-(3-(4-(4-((4-(4-(2,4-Dioxotetrahydropyrimidin-1(2H)-yl)-1H-indazol-1-yl)piperidin-1-yl)methyl)piperidin-1-yl)phenyl)-4,4-dimethyl-5-oxo-2-thioxoimidazolidin-1-yl)-2-(trifluoromethyl)benzonitrile]	≥ 50
CC1(C)C(=O)N(c2ccc(C#N)c(C(F)(F)F)c2)C(=S)N1c1ccc(N2CCC(N3CCC(n4ccc5c(N6CCC(=O)NC6=O)cncc54)CC3)CC2)cc1 [EAR96, 4-(3-(4-(4-(4-(2,4-Dioxotetrahydropyrimidin-1(2H)-yl)-1H-pyrrolo[2,3-c]pyridin-1-yl)-[1,4′-bipiperidin]-1′-yl)phenyl)-4,4-dimethyl-5-oxo-2-thioxoimidazolidin-1-yl)-2-(trifluoromethyl)benzonitrile formate]	≥ 50
CC1(C)C(=O)N(c2ccc(C#N)c(C(F)(F)F)c2)C(=S)N1c1ccc(N2CCC(CCN3CCC(n4ncc5c(N6CCC(=O)NC6=O)cncc54)CC3)CC2)cc1 [EAR97, 4-(3-(4-(4-(2-(4-(4-(2,4-Dioxotetrahydropyrimidin-1(2H)-yl)-1H-pyrazolo[3,4-c]pyridin-1-yl)piperidin-1-yl)ethyl)piperidin-1-yl)phenyl)-4,4-dimethyl-5-oxo-2-thioxoimidazolidin-1-yl)-2-(trifluoromethyl)benzonitrile formate]	≥ 50
CC1(C)C(=O)N(c2ccc(C#N)c(C(F)(F)F)c2)C(=S)N1c1ccc(N2CCC(CN3CCC(n4ncc5c(N6CCC(=O)NC6=O)cncc54)CC3)CC2)cc1 [EAR98, 4-(3-(4-(4-((4-(4-(2,4-Dioxotetrahydropyrimidin-1(2H)-yl)-1H-pyrazolo[3,4-c]pyridin-1-yl)piperidin-1-yl)methyl)piperidin-1-yl)phenyl)-4,4-dimethyl-5-oxo-2-thioxoimidazolidin-1-yl)-2-(trifluoromethyl)benzonitrile]	≥ 50
CC1(C)C(=O)N(c2ccc(C#N)c(C(F)(F)F)c2)C(=S)N1c1ccc(N2CCC(CN3CCC(n4ccc5c(N6CCC(=O)NC6=O)cccc54)CC3)CC2)cc1 [EAR99, 4-(3-(4-(4-((4-(4-(2,4-Dioxotetrahydropyrimidin-1(2H)-yl)-1H-indol-1-yl)piperidin-1-yl)methyl)piperidin-1-yl)phenyl)-4,4-dimethyl-5-oxo-2-thioxoimidazolidin-1-yl)-2-(trifluoromethyl)benzonitrile formate]	≥ 50
CC1(C)C(=O)N(c2ccc(C#N)c(C(F)(F)F)c2)C(=S)N1c1ccc(N2CCC(CCN3CCC(n4ccc5c(N6CCC(=O)NC6=O)cncc54)CC3)CC2)cc1 [EAR100, 4-(3-(4-(4-(2-(4-(4-(2,4-Dioxotetrahydropyrimidin-1(2H)-yl)-1H-pyrrolo[2,3-c]pyridin-1-yl)piperidin-1-yl)ethyl)piperidin-1-yl)phenyl)-4,4-dimethyl-5-oxo-2-thioxoimidazolidin-1-yl)-2-(trifluoromethyl)benzonitrile formate]	≥ 50
CC1(C)C(=O)N(c2ccc(C#N)c(C(F)(F)F)c2)C(=S)N1c1ccc(N2CCC(CN3CCC(n4ccc5c(N6CCC(=O)NC6=O)cncc54)CC3)CC2)cc1 [EAR101, 4-(3-(4-(4-((4-(4-(2,4-Dioxotetrahydropyrimidin-1(2H)-yl)-1H-pyrrolo[2,3-c]pyridin-1-yl)piperidin-1-yl)methyl)piperidin-1-yl)phenyl)-4,4-dimethyl-5-oxo-2-thioxoimidazolidin-1-yl)-2-(trifluoromethyl)benzonitrile]	≥ 50
